Assay results from EP4692089A1, “NITROGEN-CONTAINING HETEROCYCLIC COMPOUND AS AAK1 INHIBITOR” (Alicorn Pharmaceutical Co., Ltd., priority 2023, dated 2024).

Key:
AAK1 (30-330) protein [1] = biological target: T1, AAK1 (30-330) protein (Homo sapiens, UniProt Q2M2I8); assay: AAK1 kinase assay (ADP generated, detected by HPLC); type: biochemical; details: 3.5 nM AAK1, 22 µM ATP, 25°C, 3 h
T1 construct: (His)6x (N); TEV protease cleavage site (N); made in house; host or cells: Escherichia coli BL21(DE3)
Source text: Experimental objective: The objective of this test example is to test the effect of compounds on AAK1 kinase function.
Background principle: AAK1 phosphorylates the threonine residue in the micro-subunit of AP2 (AP2M1). In this process, ATP provides phosphate groups to generate ADP. Therefore, the activity of AAK1 kinase can be evaluated by detecting the amount of ADP generated.
(§1) Expression of AAK1 (30-330) protein: The AAK1 sequence (residues 30-330) was cloned into the pET24N vector with an N-terminal (His)6x tag and a tobacco etch virus (TEV) protease cleavage site. The constructed vector was transformed into Escherichia coli BL21(DE3). When the bacteria were cultured with shaking to reach an OD value of 0.6, 1 mM IPTG was added. […] The bacterial cells were collected and subjected to ultrasonic disruption. The supernatant was obtained by centrifugation, and the protein was purified using Ni-NTA. After dialysis, the concentration and purity of the protein were determined.
The reaction mixture was incubated in a metal bath at 25°C for 3 h. The reaction was terminated by adding 1% SDS, and the amount of ADP generated was detected by HPLC. IC50 values were calculated using GraphPad software.

AAK1 (30-330) protein [2] = biological target: T1, AAK1 (30-330) protein; assay: CETSA test of binding ability to AAK1 protein (Western blot)
Description: Experimental objective: To detect the binding ability of compounds to AAK1 protein by means of a CETSA experiment.
Background principle: The CETSA experiment is a molecular detection means for measuring the affinity between drugs and target proteins. […] When a candidate drug is co-incubated with a target protein, if the candidate drug is an inhibitor of AAK1, it can bind to AAK1. […] On the contrary, the stability of the AAK1 protein after heating will be poorer, and the amount of the detected protein will be lower. In this way, the binding ability of the drug to the target protein can be evaluated, which is used for the screening of AAK1 protein inhibitors.
as §1
CETSA sample preparation: Samples were incubated with candidate drugs, control drugs, and control reagents separately for 30 minutes. Each group of samples was heated at approximately 10 pre-set temperature points. After being returned to room temperature, the samples were centrifuged at 20000 g, and the supernatants were collected. Protein samples were denatured by heating at 100°C for 10 minutes with a sample buffer. After the samples were returned to room temperature, Western blot detection was performed on them; the protein loading amount was controlled at 20 µg. […] The same operations were followed, and Western blot detection was conducted. Protein electrophoresis: The voltage for the stacking gel was set at 60 V, and that for the separating gel was set at 120 V. After electrophoresis, electrotransfer was initiated. Electrotransfer conditions were set at 250 mA for 2 h. Blocking with 5% BSA was performed for 1 h. A specific primary antibody was added, and incubation was carried out overnight at 4°C on a shaker. Washing with TBST was conducted 4 times, with 2.5 minutes each time. A secondary antibody was incubated on a shaker at room temperature for 1 h. Washing with TBST was conducted 4 times, with 2.5 minutes each time. ECL was used for development to detect the expression levels of AAK1 protein in different groups and at each temperature point. Western blot bands were processed and converted using Image J and GraphPad software to calculate EC50.

AAK1 = biological target: T2, AAK1 (Homo sapiens, UniProt Q2M2I8); assay: Effect on AP2M1 phosphorylation in 293T cells co-transfected with AAK1 and AP2M1 (Western blot, anti-p-AP2M1); type: cell-based; details: p-AP2M1 level, incubated 3 h
T2 construct: HA; expressed in transfected cells; host or cells: 293T cells
Source text: Experimental objective: The objective of this test example is to determine the effect of compounds on AP2M1 phosphorylation in cells.
Background principle: Adaptor-associated kinase 1 (AAK1), also known as AP2-associated kinase 1, is a 104 kDa serine/threonine kinase. AAK1 interacts with the adaptor protein 2 (AP2) complex and phosphorylates the threonine residue in the micro-subunit of AP2 (AP2M1), thereby increasing its binding affinity for certain tyrosine-based or dileucine-based sorting signals of some membrane receptors. The inhibitory effect of compounds on AAK1 was evaluated by detecting the phosphorylation level of AP2M1 in cells, so as to screen candidate compounds.
On the second day, each T25 flask was co-transfected with 16 µg of plasmids (1 µg of AAK1/HA/pIRES and 15 µg of Flag/AP2MI/pcDNA) using a Lip2000 transfection reagent. On the third day, the cells were digested and resuspended, centrifuged at 1000 rpm for 5 minutes, and then seeded into 24-well plates at 450 µl per well (2 × 10^5 cells/well). Gradient dilutions of the compounds to be tested were prepared, 50 µl was added to each well, mixed thoroughly, and incubated at 37°C for 3 h. DMSO was set as a control, and cells without plasmid transfection were set as a blank control. After incubation, the cells were collected and washed twice with PBS. The cells were lysed on ice for 30 minutes using a cell lysis buffer containing the protease inhibitor PMSF. The concentration of protein samples was determined using a BCA kit. Protein electrophoresis: The voltage for the stacking gel was set at 60 V, and that for the separating gel was set at 120 V. After electrophoresis, electrotransfer was initiated. Electrotransfer conditions were set at 250 mA for 2 h. Blocking with 5% BSA was performed for 1 h. A specific primary antibody, anti-p-AP2M1, was added, and incubation was carried out overnight at 4°C on a shaker. Washing with TBST was conducted 4 times, with 2.5 minutes each time. A secondary antibody was incubated on a shaker at room temperature for 1 h. Washing with TBST was conducted 4 times, with 2.5 minutes each time. ECL was used for development to detect the expression level of p-AP2M1. Western blot bands were processed and converted using Image J and GraphPad software to calculate IC50.
IC50 (half maximal inhibitory concentration) refers to the half-inhibitory concentration of the measured antagonist. It can indicate the concentration of a certain drug or substance (inhibitor) that achieves half of the inhibition effect on certain biological processes (or certain substances involved in these processes, such as enzymes, cellular receptors, or microorganisms).

T1 sequence (Q2M2I8 30-330): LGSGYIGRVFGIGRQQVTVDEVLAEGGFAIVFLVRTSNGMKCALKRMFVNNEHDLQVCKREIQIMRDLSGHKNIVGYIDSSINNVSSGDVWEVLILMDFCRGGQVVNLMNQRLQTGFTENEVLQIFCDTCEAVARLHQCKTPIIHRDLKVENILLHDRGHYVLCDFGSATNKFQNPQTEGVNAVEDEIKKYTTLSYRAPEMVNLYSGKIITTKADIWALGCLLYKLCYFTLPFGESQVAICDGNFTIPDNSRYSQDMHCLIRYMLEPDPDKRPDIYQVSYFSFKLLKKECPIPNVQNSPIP
T2 sequence (Q2M2I8 whole entry): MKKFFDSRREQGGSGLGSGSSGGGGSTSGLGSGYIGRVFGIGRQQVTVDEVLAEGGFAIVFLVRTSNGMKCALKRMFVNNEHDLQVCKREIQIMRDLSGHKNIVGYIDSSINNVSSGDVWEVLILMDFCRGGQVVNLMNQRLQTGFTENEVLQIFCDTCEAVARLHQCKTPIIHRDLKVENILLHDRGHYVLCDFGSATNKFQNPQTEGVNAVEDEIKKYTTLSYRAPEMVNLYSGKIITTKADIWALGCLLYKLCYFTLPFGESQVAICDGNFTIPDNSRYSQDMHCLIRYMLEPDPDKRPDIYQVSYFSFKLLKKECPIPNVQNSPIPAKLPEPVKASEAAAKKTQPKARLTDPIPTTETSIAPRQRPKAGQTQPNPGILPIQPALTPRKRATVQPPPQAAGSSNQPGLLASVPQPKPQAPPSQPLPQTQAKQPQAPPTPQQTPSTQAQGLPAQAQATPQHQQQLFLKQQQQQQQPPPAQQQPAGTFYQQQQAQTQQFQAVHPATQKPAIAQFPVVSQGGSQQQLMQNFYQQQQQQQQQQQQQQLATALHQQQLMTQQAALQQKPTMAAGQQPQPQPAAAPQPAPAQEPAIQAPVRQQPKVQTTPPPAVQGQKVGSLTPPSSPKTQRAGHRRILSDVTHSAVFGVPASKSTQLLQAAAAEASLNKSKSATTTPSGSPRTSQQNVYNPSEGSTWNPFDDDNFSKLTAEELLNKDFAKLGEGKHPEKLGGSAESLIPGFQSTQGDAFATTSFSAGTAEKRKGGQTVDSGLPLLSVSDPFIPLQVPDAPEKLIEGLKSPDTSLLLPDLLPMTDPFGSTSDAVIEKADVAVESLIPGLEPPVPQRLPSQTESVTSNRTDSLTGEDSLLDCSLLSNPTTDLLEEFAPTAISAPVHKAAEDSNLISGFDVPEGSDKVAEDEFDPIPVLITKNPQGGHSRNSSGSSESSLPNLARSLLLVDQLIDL

IC50 (AAK1 (30-330) protein [1]) [µM]	EC50 (AAK1 (30-330) protein [2]) [µM]	IC50 (AAK1) [µM]	SMILES
0.0872	0.01 to 0.1	0.01 to 0.1	COc1ccnc2[nH]cc(-c3ccc(OC[C@@](C)(N)CC(C)C)c(C(F)F)n3)c12 [Compound 16, (S)-1-{[2-(difluoromethyl)-6-(4-methoxy-1H-pyrrolo[2,3-b]pyridin-3-yl)pyridin-3-yl]oxy}-2,4-dimethylpentan-2-amine tris(trifluoroacetate)]
0.102	0.01 to 0.1	0.01 to 0.1	CC(C)C[C@](C)(N)COc1ccc(-c2c[nH]c3nc(F)ccc23)nc1C(F)F [Compound 14]
0.0121	< 0.01	< 0.01	CC(C)C[C@](C)(N)COc1ccc(-c2cn(C)c3ncc(F)cc23)nc1C(F)F [Compound 43, (S)-1-{[2-(difluoromethyl)-6-(5-fluoro-1-methyl-1H-pyrrolo[2,3-b]pyridin-3-yl)pyridin-3-yl]oxy}-2,4-dimethylpentan-2-amine]
0.0065	< 0.01	< 0.01	Cc1cnc2[nH]cc(-c3ccc(OC[C@@](C)(N)CC(C)C)c(C(F)F)n3)c2c1 [Compound 45, (S)-1-{[2-(difluoromethyl)-6-(5-methyl-1H-pyrrolo[2,3-b]pyridin-3-yl)pyridin-3-yl]oxy}-2,4-dimethylpentan-2-amine diformate]
0.0873	0.01 to 0.1	0.01 to 0.1	CC(C)C[C@@](C)(N)COc1ccc(-c2ccnc3c(F)cnn23)nc1C(F)F [Compound 19]
0.17	0.1 to 1	0.01 to 0.1	CC(C)C[C@](C)(N)COc1ccc(-c2ccnc3c(C(=O)O)cnn23)nc1C1CC1 [Compound 22]
0.101	0.01 to 0.1	0.01 to 0.1	CC(C)C[C@](C)(N)COc1ncc(-c2c[nH]c3ncc(C(F)F)cc23)c(C(F)(F)F)n1 [Compound 39]
0.102	0.01 to 0.1	0.01 to 0.1	Cc1nc2ccnn2c(-c2ccc(OC[C@@](C)(N)CC(C)C)c(C(F)F)n2)c1F [Compound 20]
0.0425	0.01 to 0.1	0.01 to 0.1	CC(C)C[C@](C)(N)COc1ccc(-c2ccnc3c(F)cnn23)nc1C(F)F [Compound 18]
0.0695	0.01 to 0.1	0.01 to 0.1	CC(C)C[C@](C)(N)COc1ccc(-c2c[nH]c3ncc(C(F)F)cc23)cc1C(F)(F)F [Compound 33]
0.0082	< 0.01	< 0.01	CC(C)C[C@](C)(N)COc1ccc(-c2c[nH]c3ncc(Cl)cc23)nc1C(F)F [Compound 44, (S)-1-{[6-(5-chloro-1H-pyrrolo[2,3-b]pyridin-3-yl)-2-(difluoromethyl)pyridin-3-yl]oxy}-2,4-dimethylpentan-2-amine]
0.168	0.01 to 0.1	0.01 to 0.1	CC(C)C[C@@](C)(N)COc1ccc(-c2cncc3[nH]c(C(F)(F)F)nc23)nc1C(F)F [Compound 13]
0.111	0.01 to 0.1	0.01 to 0.1	CC(C)C[C@@](C)(N)COc1ccc(-c2c[nH]c3nc(F)ccc23)nc1C(F)F [Compound 15]
0.19	0.1 to 1	0.01 to 0.1	Cc1nc2ccnn2c(-c2ccc(OC[C@](C)(N)CC(C)C)c(C(F)F)n2)c1F [Compound 21]
0.0578	0.01 to 0.1	0.1 to 1	CC(C)C[C@](C)(N)COc1ccc(-c2c[nH]c3ncc(C#N)cc23)nc1C(F)F [Compound 27]

Continued, compound first:

SMILES	IC50 (AAK1 (30-330) protein [1]) [µM]	EC50 (AAK1 (30-330) protein [2]) [µM]	IC50 (AAK1) [µM]
CC(C)C[C@@](C)(N)COc1ccc(-c2c[nH]c3ncccc23)nc1C(F)F [Compound 2, (R)-1-{[2-(difluoromethyl)-6-(1H-pyrrolo[2,3-b]pyridin-3-yl)pyridin-3-yl]oxy}-2,4-dimet hylpentan-2-amine]	0.0283	0.01 to 0.1	0.01 to 0.1
CC(C)C[C@@](C)(N)COc1ccc(-c2ccnc3c2nc(C(F)(F)F)n3C)nc1C(F)F [Compound 11]	0.123	0.01 to 0.1	0.01 to 0.1
CC(C)C[C@](C)(N)COc1ccc(-c2ccnc3[nH]cnc23)nc1C(F)F [Compound 6]	0.0752	0.01 to 0.1	0.01 to 0.1
CC(C)C[C@@](C)(N)COc1ccc(-c2ccnc3[nH]cnc23)nc1C(F)F [Compound 7]	0.101	0.1 to 1	0.01 to 0.1
CC(C)C[C@](C)(N)COc1ccc(-c2cncc3[nH]c(C(F)(F)F)nc23)nc1C(F)F [Compound 12]	0.0992	0.01 to 0.1	0.01 to 0.1
CC(C)C[C@](C)(N)COc1ccc(-c2ccnc3[nH]c(C(F)(F)F)nc23)nc1C(F)F [Compound 8]	0.129	0.01 to 0.1	0.01 to 0.1
CC(C)C[C@@](C)(N)COc1ccc(-c2ccnc3ccnn23)nc1C(F)F [Compound 1, (R)-1-{[2-(difluoromethyl)-6-(pyrazolo[1,5-a]pyrimidin-7-yl)pyridin-3-yl]oxy}-2,4-dimet hylpentan-2-amine]	0.0321	0.01 to 0.1	0.01 to 0.1
CC(C)C[C@](C)(N)COc1ccc(-c2ccnc3c2nc(C(F)(F)F)n3C)nc1C(F)F [Compound 10]	0.152	0.01 to 0.1	0.01 to 0.1
CC(C)C[C@@](C)(N)COc1ccc(-c2ccnc3[nH]c(C(F)(F)F)nc23)nc1C(F)F [Compound 9]	0.0992	0.01 to 0.1	0.01 to 0.1
CC(C)C[C@](C)(N)COc1ccc(-c2c[nH]c3ncccc23)nc1C(F)F [Compound 3]	0.0212	0.01 to 0.1	0.01 to 0.1
CC(C)C[C@@](C)(N)COc1ccc(-c2c[nH]c3nc(C(F)(F)F)ccc23)nc1C(F)F [Compound 5]	0.0861	0.01 to 0.1	0.01 to 0.1
CC(C)C[C@](C)(N)COc1ccc(-c2c[nH]c3nc(C(F)(F)F)ccc23)nc1C(F)F [Compound 4]	0.0459	0.01 to 0.1	0.01 to 0.1
